Source: patent US10125125B2, “N-(heteroaryl)-sulfonamide derivatives useful as S100-inhibitors” (Active Biotech AB, priority 2013, dated 2018)
Where two headings read alike, the source gives them in different places.

Assays:
[1] = target: biotinylated human S100A9 : rhRAGE-Fc interaction (Homo sapiens (Human), UniProt P06702); assay: AlphaScreen inhibition assay, Biot-hS100A9:hRAGE-Fc (S100A9-RAGE inhibition assay); assay type: binding
Text: FIG. 1 is a schematic representation of an assay of the inhibition of the interaction between biotinylated human S100A9 and human RAGE-Fc using a small molecule S100A9 binder.
Inhibition Assay, Biot-hS100A9:hRAGE-Fc
The AlphaScreen (Amplified Luminescent Proximity Homogeneous Assay) contains two types of beads, Alpha Donor beads and Acceptor beads (PerkinElmer). Upon laser excitation at 680 nm a photosensitizer in the Donor bead converts ambient oxygen to a more excited singlet state. The singlet oxygen molecule diffuses (maximum 200 nm) to react with a thioxene derivative in the Acceptor bead and generates a chemiluminescence reaction. Fluorophores in the Acceptor bead subsequently emit light at 520-620 nm which can be detected in the EnVision® Multilabel plate Reader (PerkinElmer). The beads are light sensitive and all work with the beads is performed under subdued light conditions or using green filters on light sources (Roscolux Chroma Green #389, Rosco).
In the AlphaScreen Inhibition Assay described here, protein A (Staphylococcus aureus) conjugated Acceptor beads are used together with streptavidin coated Donor beads (Perkin Elmer 6760617M). The Acceptor beads are pre-incubated with Fc-tagged recombinant human RAGE (rhRAGE-Fc) allowing binding of the rhRAGE-Fc to protein A on the beads. Biotinylated human S100A9 (biot-hS100A9) is pre-incubated with the low molecular test compounds. The pre-mixes are then added to the wells of a micro-plate and incubated allowing interaction between biot-hS100A9 and rhRAGE-Fc. Subsequent addition of streptavidin coated Donor beads causes binding of the streptavidin to the biotinylated hS100A9. After an additional incubation the signal is measured.
Without inhibitory compounds, the interaction of biot-hS100A9 to rhRAGE-Fc will bring the Acceptor and Donor beads in close proximity thus generating a high signal. With an inhibitor present the complex will not form resulting in a decreased signal.
Chemicals and reagents. • AlphaScreen® General IgG (Protein A) Detection Kit, (PerkinElmer 6760617M) • HBS-P buffer (GE Healthcare, BR-1003-68) • HBS-N buffer (GE Healthcare, BR-1003-69) • CaCl2 in HBS-P • ZnCl2 in Milli-Q water • DMSO • Biotinylated hS100A9, (biotinylated via cystein by EZ-link Iodoacetyl-PEG2-Biotin reagent (Pierce no. 21334), in HBS-N • rhRAGE-Fc (R&D Systems, 1145-RG-50), in HBS-P
The AlphaScreen assay method is used for screening of the inhibitory effect of different compound samples at fixed concentrations or for IC50 determination by varying the compound concentrations. Samples of test compounds and references are prepared from solutions in DMSO. Relevant reference inhibitors and DMSO are used as controls for defined inhibition and non-inhibition, respectively in the assay. The percent inhibition in assay for test compounds and references are calculated by comparing their obtained assay signals with the signal values for the control with only DMSO (no compound).
Assay concentration of biotinylated hS100A9 and rhRAGE-Fc are batch dependent, and are determined and defined by separate cross-titration experiments using this AlphaScreen inhibition method to verify the optimal setup regarding signal strength and achievement of a defined inhibition with relevant reference compounds. The Final assay concentrations of Acceptor and Donor beads are 20 μg/mL.
Experimental Set Up for Screening, Preparation of Solutions and Beads.
Assay buffer is prepared by adding CaCl2 and ZnCl2 to HBS-P and is used freshly prepared in the experiment.
Biotin-hS100A9 solution for the experiment is prepared by dilution of appropriate amount of stock solution biot-hS100A9 in assay buffer (with CaCl2 and ZnCl2) and incubation in room temperature for 30 minutes.
rhRAGE-Fc solution for the experiment is prepared by dilution appropriate amount of rhRAGE-Fc stock in assay buffer.
Protein A Acceptor beads are diluted in assay buffer and are added to an equal volume of the prepared diluted rhRAGE-Fc solution.

[2] = Prodrug assay: plasma concentrations of prodrugs and demethylated parents after cassette dosing, LC-MS; assay type: in vivo, C57 Bl/6 mice; settings: C57 Bl/6, mouse, solution, read-out: Parent (demethylated compound) Conc. in plasma after prodrug dosing
Protocol: ABR-239313, 239470 and 239749 were administered to seven C57 Bl/6 mice as a cassette formulation either intravenously (4 animals, nominal 1 mg/kg) or per oral (3 animals, nominal 5 mg/kg).
Blood samples were collected at time points ranging from 5 minutes to 7 hours after administration. After sample withdrawal, plasma was directly separated and frozen until analysis.
The plasma as well as the formulation samples were analyzed with respect to the concentration of ABR-239313, 239470, 239749 and the corresponding demethylated compounds, i.e. Examples 9, 75 and 73 (ABR-239247, 239417 and 239167) by means of LC-MS.
The samples were precipitated with acidified acetonitrile and centrifuged prior to injection on LC-MS system (consisting of a triple quadrupole instrument operated in negative MRM ionization mode, and a fast-gradient reversed-phase LC on a Symmetry Shield RP18, 2×30 mm, 3.5 um column).
In Table 3 the concentrations of each analyte are presented.

[3] = intravenous, i.v. cassette of prodrugs, nominal 1 mg/kg
[4] = oral, p.o. cassette of prodrugs, nominal 5 mg/kg

biotinylated human S100A9 : rhRAGE-Fc interaction, sequence (P06702 whole entry): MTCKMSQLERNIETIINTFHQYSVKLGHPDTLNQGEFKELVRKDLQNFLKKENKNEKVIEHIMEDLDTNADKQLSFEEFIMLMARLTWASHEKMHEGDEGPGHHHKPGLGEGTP

SMILES	IC50 [1]	concentration at 0.083 h [2, 3]	concentration at 0.5 h [2, 3]	concentration at 1 h [2, 3]	concentration at 2 h [2, 3]	concentration at 4 h [2, 3]	concentration at 7 h [2, 3]	concentration at 0.5 h [2, 4]	concentration at 1 h [2, 4]	concentration at 2 h [2, 4]	concentration at 4 h [2, 4]	concentration at 7 h [2, 4]
O=S(=O)(Nc1cnc(Cl)cc1O)c1cc(Cl)sc1Cl [Example 73, 2,5-dichloro-N-(6-chloro-4-hydroxypyridin-3-yl)thiophene-3-sulfonamide]	1200 nM	89 nM	200 nM	190 nM	210 nM	180 nM	130 nM	460 nM	490 nM	690 nM	610 nM	780 nM
O=S(=O)(Cc1ccc(Cl)c(Cl)c1)Nc1ncc(Br)nc1O [Example 75, N-(5-bromo-3-hydroxypyrazin-2-yl)-1-(3,4-dichlorophenyl)methanesulfonamide]	250 nM	120 nM	320 nM	320 nM	320 nM	210 nM	200 nM	570 nM	860 nM	800 nM	630 nM	1100 nM
CCSc1cc(Cl)cc(CS(=O)(=O)Nc2ccc(Cl)nc2O)c1 [Example 186, N-(6-chloro-2-hydroxypyridin-3-yl)-1-[3-chloro-5-(ethylsulfanyl)phenyl]methane-sulfonamide]	< 1000 nM	–	–	–	–	–	–	–	–	–	–	–
CCS(=O)(=O)c1ccc(NS(=O)(=O)Cc2cc(Cl)cc(Cl)c2)c(O)n1 [Example 188, 1-(3,5-dichlorophenyl)-N-[6-(ethanesulfonyl)-2-hydroxypyridin-3-yl]methane-sulfonamide]	< 1000 nM	–	–	–	–	–	–	–	–	–	–	–

More lines, now with the values ahead:

IC50 [1]	concentration at 0.083 h [2, 3]	concentration at 0.5 h [2, 3]	concentration at 1 h [2, 3]	concentration at 2 h [2, 3]	concentration at 4 h [2, 3]	concentration at 7 h [2, 3]	concentration at 0.5 h [2, 4]	concentration at 1 h [2, 4]	concentration at 2 h [2, 4]	concentration at 4 h [2, 4]	concentration at 7 h [2, 4]	SMILES
120 nM	44 nM	5 nM	3 nM	6 nM	4 nM	4 nM	45 nM	26 nM	21 nM	12 nM	19 nM	O=S(=O)(Cc1cc(Cl)cc(Cl)c1)Nc1ncc(Cl)cc1O [Example 9, N-(5-chloro-3-hydroxypyridin-2-yl)-1-(3,5-dichlorophenyl)methanesulfonamide]
120 nM	–	–	–	–	–	–	–	–	–	–	–	N#Cc1cnc(NS(=O)(=O)Cc2cc(Cl)cc(Cl)c2)c(O)c1 [Example 189, N-(5-cyano-3-hydroxypyridin-2-yl)-1-(3,5-dichlorophenyl)methanesulfonamide]
